Measurements published in PMC3116082 (Journal of the American Chemical Society, 2011).

How the values were obtained:
Format in all cases: biochemical
[1] = biological target: T1, ThiSG (thiazole synthase) (Bacillus subtilis, UniProt O31618); experiment: thiazole reconstitution, strong anion exchange HPLC; conditions: without TenI; ThiF, NifS, ThiO, cysteine, ATP, glycine, DXP
T1 sequence (O31618 1-256): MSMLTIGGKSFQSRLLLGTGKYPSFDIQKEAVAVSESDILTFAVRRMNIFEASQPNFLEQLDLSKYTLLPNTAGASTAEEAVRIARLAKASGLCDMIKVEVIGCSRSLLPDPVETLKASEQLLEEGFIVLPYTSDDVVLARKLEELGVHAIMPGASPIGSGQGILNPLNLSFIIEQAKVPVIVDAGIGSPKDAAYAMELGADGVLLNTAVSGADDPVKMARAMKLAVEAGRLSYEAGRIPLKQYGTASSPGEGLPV
T1 sequence (O31617 1-66 partner): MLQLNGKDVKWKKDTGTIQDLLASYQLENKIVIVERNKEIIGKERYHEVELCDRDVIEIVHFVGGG

[2] = biological target: thiamin phosphate synthase (ThiE) (Bacillus subtilis, UniProt P39594); experiment: thiochrome assay, HPLC with fluorescence detection; conditions: co-substrate HMP-PP
ThiO = biological target: T2, ThiO (Bacillus subtilis, UniProt O31616); experiment: H2O2 formation, HRP-coupled absorbance at […] nm; conditions: 0.1-10 mM glycine, without TenI
T2 sequence (O31616 1-369): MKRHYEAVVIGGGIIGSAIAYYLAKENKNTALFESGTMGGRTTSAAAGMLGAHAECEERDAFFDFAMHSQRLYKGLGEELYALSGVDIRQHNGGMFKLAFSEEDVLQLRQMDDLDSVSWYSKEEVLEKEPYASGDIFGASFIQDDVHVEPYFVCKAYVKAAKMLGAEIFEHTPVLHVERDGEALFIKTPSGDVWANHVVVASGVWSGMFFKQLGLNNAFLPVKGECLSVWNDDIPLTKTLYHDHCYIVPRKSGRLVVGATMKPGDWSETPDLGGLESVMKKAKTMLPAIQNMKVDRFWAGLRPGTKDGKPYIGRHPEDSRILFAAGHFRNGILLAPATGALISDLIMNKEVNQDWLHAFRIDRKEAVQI

thiamin phosphate synthase (ThiE), sequence (P39594 whole entry): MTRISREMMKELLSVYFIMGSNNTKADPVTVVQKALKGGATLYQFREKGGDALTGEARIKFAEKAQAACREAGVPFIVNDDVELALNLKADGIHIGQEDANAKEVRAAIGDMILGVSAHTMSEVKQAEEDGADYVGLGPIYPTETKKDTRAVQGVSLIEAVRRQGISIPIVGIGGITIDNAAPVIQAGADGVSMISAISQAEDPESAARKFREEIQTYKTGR

SMILES	thiochrome assay, HPLC with fluorescence detection [2]	also measured
CC1=N[C@@H](C(=O)O)S/C1=C\COP(=O)(O)O [compound 14, (R,Z)-2-(2-carboxy-4-methylthiazol-5(2H)-ylidene)ethyl phosphate]		thiazole reconstitution, strong anion exchange HPLC [1]: In the absence of TenI, cThz*-P was the only thiazole product formed
Cc1nc(C(=O)O)sc1CCOP(=O)(O)O [compound 16, 2-(2-carboxy-4-methylthiazol-5-yl)ethyl phosphate]	cThz-P and Thz-P are significantly better substrates than cThz*-P	
NCC(=O)O [compound 19, glycine]		H2O2 formation, HRP-coupled absorbance at 500 nm (ThiO): the rate of hydrogen peroxide production with increasing concentrations of glycine was unaffected by TenI
Cc1ncsc1CCOP(=O)(O)O [compound 15, 2-(4-methylthiazol-5-yl)ethyl phosphate]	cThz-P and Thz-P are significantly better substrates than cThz*-P	
